Values quoted from earlier work, collected in patent US5693668A, “Acetylcholinesterase inhibitors” (priority 1989, dated 1997).

Settings: Bronaugh and Stewart, J. Pharm. Sci. 1984; cited from earlier work

polyethylene glycol 20 Oleyl ether [PEG 20 oleyl ether]
effect on integrity or permeation characteristics of the skin: not found to affect the integrity or the permeation characteristics of the skin
